Experiments:
Details in all cases: 72 h
[1] = test system: HEL; assay: cell viability (% survival relative to DMSO control, bortezomib = 0%); higher = less cytotoxic
Procedure, shortened: (§1)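 After 72 h at 37 °C with 5% CO2, cell viability in 384-well plates was measured by CellTiter-Glo luminescence. The plates held compounds pre-printed at 1, 10, 100, 1000 or 10000 nM in duplicate, and cells from 10 AML and 5 CML lines seeded at densities titrated to linear growth. Percent survival is the duplicate mean, normalised to vehicle as 100% and a 10 µM positive control as 0%.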

[2] = test system: Mono-Mac-6; assay: as above
Procedure, shortened: as §1

[3] = test system: SHI-1; assay: as above
Procedure, shortened: as §1

[4] = test system: HL-60; assay: area under dose-response curve (viability, 1 nM-10 uM) (fraction (0-1)); higher = more sensitive
Procedure, shortened: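 A rescreen of the full library used HL-60 cells in RPMI 1640 with 10% FBS on 384-well plates, run in duplicate at five tenfold concentrations (1–10,000 nM). Each screen included DMSO or 100 nM of one of three metabolic inhibitors and ran 72 h at 37 °C, 5% CO2. CellTiter-Glo viability was scaled between DMSO and 10 μM proteasome-inhibitor wells. Any area under the curve comes from four-parameter log-logistic fits with drc and PharmacoGx.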

[5] = co-treatment: GSK2194069 100 nM
[6] = co-treatment: pictilisib 100 nM

Compound | cell viability ([1]; 1 nM) [%] | cell viability ([1]; 10 nM) [%] | cell viability ([1]; 100 nM) [%] | cell viability ([1]; 1000 nM) [%] | cell viability ([1]; 10000 nM) [%] | cell viability ([2]; 1 nM) [%] | cell viability ([2]; 10 nM) [%] | cell viability ([2]; 100 nM) [%] | cell viability ([2]; 1000 nM) [%] | cell viability ([2]; 10000 nM) [%] | cell viability ([3]; 1 nM) [%] | cell viability ([3]; 10 nM) [%] | cell viability ([3]; 100 nM) [%] | cell viability ([3]; 1000 nM) [%] | cell viability ([3]; 10000 nM) [%] | area under dose-response curve ([4]; co-treatment: AZD3965 100 nM) | area under dose-response curve ([4]; co-treatment: DMSO vehicle) | area under dose-response curve [4, 5] | area under dose-response curve [4, 6]
CN(C)C(=O)[C@H](O)[C@H](Cc1ccccc1)NC(=O)c1cc2cc(Cl)ccc2[nH]1 | 98.5 | 102 | 99.1 | 112 | 88.1 | 94.8 | 97.8 | 103 | 96.5 | 83.8 | 106 | 97.8 | 115 | 114 | 99.6 | < 0.0301 | < 0.0301 | < 0.0301 | < 0.0301
COc1ccc(CNC(=O)Nc2ncc([N+](=O)[O-])s2)cc1 | 111 | 98 | 113 | 108 | 109 | 96 | 98 | 96.7 | 91.3 | 70.2 | 105 | 101 | 103 | 106 | 89.8 | < 0.0301 | < 0.0301 | < 0.0301 | < 0.0301
O=C(O)C[C@@]1(O)C[C@@H](CCCCCCc2ccc(Cl)cc2Cl)OC1=O | 110 | 118 | 99.2 | 89.2 | 95.6 | 96.3 | 111 | 102 | 92.8 | 96.3 | 99.7 | 124 | 98.4 | 102 | 96.4 | < 0.0301 | < 0.0301 | < 0.0301 | < 0.0301
O=C(NCCCCCCNC(=O)ONC1=CCCCC1)ONC1=CCCCC1 | 90.8 | 104 | 117 | 113 | 90.9 | 90.6 | 110 | 103 | 98.8 | 102 | 98.7 | 103 | 112 | 112 | 97.3 | < 0.0301 | < 0.0301 | < 0.0301 | < 0.0301
CCCCCCCCCCCC(=O)c1c(O)c(C(=O)CCCCCCCCCCC)c(O)c(C2CC(c3ccc(O)cc3)Oc3cc(O)ccc32)c1O (stereo unspecified) | 108 | 97.8 | 115 | 110 | 87 | 86.1 | 112 | 106 | 103 | 91.6 | 95.1 | 111 | 102 | 112 | 104 | – | – | – | –
CCOP(=O)(OCC)C(=Cc1cc(C(C)(C)C)c(O)c(C(C)(C)C)c1)P(=O)(OCC)OCC | 92.1 | 95.8 | 109 | 89.8 | 108 | 93.3 | 99.4 | 129 | 75.2 | 57.6 | 100 | 89.7 | 123 | 94.9 | 98.5 | < 0.0301 | < 0.0301 | < 0.0301 | < 0.0301
COc1ccc(-c2ccccc2)cc1NS(=O)(=O)c1cc(Cl)cc(Cl)c1O | 106 | 87.4 | 115 | 74 | 95.3 | 102 | 86.8 | 97.8 | 90.2 | 90.7 | 95.9 | 101 | 105 | 82.2 | 113 | < 0.0301 | < 0.0301 | < 0.0301 | < 0.0301
O=C(O)c1cc(Cl)cc(Cl)c1O [3,5-Dichlorosalicylic Acid] | 102 | 111 | 98.6 | 111 | 104 | 106 | 102 | 93.7 | 107 | 89.7 | 110 | 105 | 98.4 | 111 | 90 | < 0.0301 | < 0.0301 | < 0.0301 | < 0.0301
O=C(O)C(=O)CBr [3-bromopyruvic acid] | 90 | 83.1 | 92.2 | 96.2 | 112 | 96.3 | 93 | 93.2 | 105 | 94.3 | 98.8 | 98.3 | 117 | 99.6 | 110 | < 0.0301 | < 0.0301 | < 0.0301 | < 0.0301
NS(=O)(=O)c1ccc([N+](=O)[O-])cc1 [4-Nitrobenzenesulfonamide] | 105 | 98.7 | 105 | 99.6 | 96.3 | 101 | 97.3 | 98.1 | 111 | 89.8 | 102 | 90.7 | 102 | 100 | 93.8 | < 0.0301 | < 0.0301 | < 0.0301 | < 0.0301
